The values below are quoted from earlier work in patent US20240165053A1, “Topical Medicament for Use in Treatment of Anorectal Inflammation” (priority 2022, published 2024).

The data set concerns swollen hemorrhoids.

As for `OC[C@H]1O[C@@](CO)(O[C@H]2O[C@H](CO)[C@@H](O)[C@H](O)[C@H]2O)[C@@H](O)[C@@H]1O` [granulated sugar, Sucrose], the “time of application after which the difference is noticeable with the naked eye” value (topical application on prolapsed hemorrhoids) is 10 min. The “edema reduction of swollen hemorrhoids” value (topical application, medical studies) is given as “immediate edema reduction”.
